Assay results published in patent publication US9296631B2, “Preparation of environmentally acceptable scale inhibitors” (Ecolab USA Inc., priority 2008, dated 2016).

Key:
[1] = OECD 306 biodegradation test, closed bottle method; details: percent of measured COD, no substrate, acidic, non-neutralized form; for BIODEGRADATION by OECD 306 Max, 28 d (%): 28 days; for BIODEGRADATION by OECD 306 Max, 63 d (%): 63 days
Description: Full details of the procedure and methods of calculation are publicly available in OECD documents. In all cases, the tests were performed without a substrate and the percent biodegradation was determined as a percentage of the measured chemical oxygen demand (COD).
Each of the datasets presented in Table 1 and FIGS. 2 through 5 were obtained on the products as described in their acidic, non-neutralized forms.

[2] = Scale inhibitor performance, dynamic loop method; details: Field I brine, 128 C, pH 7.7, 10 mL/min; hold time 1 hour
Source text: A number of scale inhibitor performance tests were undertaken using the dynamic loop method. This method is widely used in the oilfield service industry and is designed to evaluate the ability of a candidate scale inhibitor to delay the blockage of a small diameter metal capillary when injected with a scaling brine at constant flow rate under selected test conditions. The test conditions and water compositions are generally selected to represent, at least in-part, the process conditions under which a scale inhibitor might be deployed. The flow rate of the test brine is generally selected to allow the experiment to be performed in a repeatable and controlled manner. […]
Typically, one or more tests without any added scale inhibitor (blank tests) were performed in order to determine the scaling time for the un-inhibited brine under the given test conditions. […] The deposition of scale was monitored by measuring the differential pressure (ΔP) developed across the test capillary over time. […] Alternatively, the concentration of the scale inhibitor can be reduced step-wise and the minimum inhibitor concentration (MIC) required for preventing a given increase in ΔP over a given time period can be determined. […]
To prepare the test water, each water composition was divided into two parts. […] The pH of the individual waters was also measured and adjusted. […]

Row | Compound | BIODEGRADATION by OECD 306 Max, 28 d (%) [1] | BIODEGRADATION by OECD 306 Max, 28 d (%) ([1]; listed as Phosphonate 1) | MIC Field I (ppm) [2] | BIODEGRADATION by OECD 306 Max, 63 d (%) [1]
1 | O=P(O)(O)CN(CCCCCCN(CP(=O)(O)O)CP(=O)(O)O)CCCCCCN(CP(=O)(O)O)CP(=O)(O)O [BHMTPA, bis(hexamethylene) triamine penta(methylene phosphonic acid)] | 6% | – | – | –
2 | O=P(O)(O)CN(CCN(CP(=O)(O)O)CP(=O)(O)O)CCN(CP(=O)(O)O)CP(=O)(O)O [DETA, diethylene triamine penta(methylene phosphonic acid)] | 0% | 0% | 6-8 ppm | –
3 | O=P(O)(O)CN(CCO)CP(=O)(O)O [MEA, monoethanolamine bis(methylene phosphonic acid)] | 6% | – | – | 3%
4 | O=P(O)(O)CN(CCN(CCN(CP(=O)(O)O)CP(=O)(O)O)CP(=O)(O)O)CCN(CP(=O)(O)O)CP(=O)(O)O [TETHMPA, tri-ethylene tetra amine hexa(methylene phosphonic acid)] | 0% | – | – | –
5 | BAEE | 0% | – | – | 5%
